Measurements: US6552006B2, “Immunomodulatory polynucleotides in treatment of an infection by an intracellular pathogen” (The Regents of the University of California, priority 2000, dated 2003)

Test system: indoleamine 2,3-dioxygenase (IDO)
Experiment: IDO gene transcription in mBMDM in vitro, semi-quantitative RT-PCR
Assay type: cell-based, mouse
Conditions: mBMDM treated 3 days prior to M. avium infection; 4, 8, 24 hrs after infection
Method: 1-4×10^6 mBMDM were treated with ISS or M-ODN. After 3 days, the cells were infected with M. avium for 2 hrs. At 2, 24, and 48 hrs after infection, the M. avium-infected macrophages were lysed and total RNA was isolated using the Trizol Reagent (Gibco BRL). The induction of IDO gene transcription was measured by semi-quantitative […]. First-strand cDNA preparation and PCR amplification was carried out using the SuperScript Pre-amplification System (Gibco BRL) and AdvanTaq Plus DNA polymerase (Clontech, San Francisco, Calif.), respectively. PCR products were visualized by electrophoresis on 2% agarose gels. The primer sequences used were as follows:
For in vitro studies mBMDM were treated with ISS for 3 days prior to M. avium infection. Then, cells were lysed at 4, 8, and 24 hrs after infection, total RNA was extracted, and semi-quantitative RT-PCR was performed.

Substance: 5′-TGACTGTGAACGTTCGAGATGA-3′ (SEQ ID NO:1) [ISS]
- optimal induction of IDO gene transcription: require both treatment with ISS and M. avium infection
